Literature values, collected in patent US9339471B2, “Long acting dual release product containing carbinoxamine and pseudoephedrine” (E5 PHARMA, LLC, priority 2007, dated 2016).

Conditions: dependent on urine pH; cited from earlier work

SMILES: CN[C@@H](C)[C@@H](O)c1ccccc1.Cl (relative stereo) [Pseudoephedrine, [S—(R*,R*)]-α-[1-(methylamino)ethyl]-benzenemethanol hydrochloride]
- mean elimination half-life: 4 to 6 h
